Experimental data: ChEMBL document CHEMBL2176906, “Diterpenoids isolated from Sideritis species protect astrocytes against oxidative stress via Nrf2” (J Nat Prod, 2012)
The source made the active and inactive calls. The calls are words filed in the database; no cut-off is given here.

Biological target: T1, Nuclear factor erythroid 2-related factor 2 (Homo sapiens) (UniProt Q16236)
T1 sequence (whole entry): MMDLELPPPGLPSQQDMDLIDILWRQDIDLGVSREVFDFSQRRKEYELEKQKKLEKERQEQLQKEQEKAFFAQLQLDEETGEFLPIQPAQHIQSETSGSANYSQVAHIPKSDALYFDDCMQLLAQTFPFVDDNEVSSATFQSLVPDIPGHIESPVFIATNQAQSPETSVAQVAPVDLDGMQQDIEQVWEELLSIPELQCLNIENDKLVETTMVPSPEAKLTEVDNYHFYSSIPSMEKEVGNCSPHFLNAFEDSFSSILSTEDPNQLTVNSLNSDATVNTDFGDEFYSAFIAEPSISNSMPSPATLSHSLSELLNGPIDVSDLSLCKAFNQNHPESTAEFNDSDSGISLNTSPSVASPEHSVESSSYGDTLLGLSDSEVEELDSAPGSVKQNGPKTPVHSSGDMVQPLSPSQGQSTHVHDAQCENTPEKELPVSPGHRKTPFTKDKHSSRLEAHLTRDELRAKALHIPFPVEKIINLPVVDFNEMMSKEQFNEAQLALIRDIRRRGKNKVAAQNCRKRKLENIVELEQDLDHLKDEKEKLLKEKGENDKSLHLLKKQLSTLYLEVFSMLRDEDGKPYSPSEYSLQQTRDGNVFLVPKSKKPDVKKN
Experiment: Induction of Nrf2-mediated CAT protein expression in H2O2-stimulated human U373MG cells preincubated at 5 uM for 24 hrs before H2O2 challenge by Western blot method
Type: cell-based
Conditions: U-373MG ATCC

Row | Activity | SMILES
1 | inactive | CC1(C)CCC[C@]2(C)[C@@H]1C[C@H](O)[C@@]13C=C[C@@](CO)(C1)[C@H](O)C[C@@H]23 [CONCHITRIOL]

Biological target: T1, Nuclear factor erythroid 2-related factor 2 (Homo sapiens)
Experiment: Induction of Nrf2-mediated GPx protein expression in H2O2-stimulated human U373MG cells preincubated at 10 uM for 24 hrs before H2O2 challenge by Western blot method
Type: cell-based
Conditions: U-373MG ATCC

Row | Activity | SMILES
2 | inactive | CC1(C)CCC[C@]2(C)[C@@H]1C[C@H](O)[C@@]13C=C[C@@](CO)(C1)[C@H](O)C[C@@H]23 [CONCHITRIOL]

Biological target: T1, Nuclear factor erythroid 2-related factor 2 (Homo sapiens)
Experiment: Induction of Nrf2-mediated GPx protein expression in H2O2-stimulated human U373MG cells preincubated at 5 uM for 24 hrs before H2O2 challenge by Western blot method
Type: cell-based
Conditions: U-373MG ATCC

Row | Activity | SMILES
3 | inactive | CC1(C)CCC[C@]2(C)[C@@H]1C[C@H](O)[C@@]13C=C[C@@](CO)(C1)[C@H](O)C[C@@H]23 [CONCHITRIOL]

Biological target: T1, Nuclear factor erythroid 2-related factor 2 (Homo sapiens)
Experiment: Induction of Nrf2-mediated SOD protein expression in H2O2-stimulated human U373MG cells preincubated at 10 uM for 24 hrs before H2O2 challenge by Western blot method
Type: cell-based
Conditions: U-373MG ATCC

Row | Activity | SMILES
4 | inactive | CC1(C)CCC[C@]2(C)[C@@H]1C[C@H](O)[C@@]13C=C[C@@](CO)(C1)[C@H](O)C[C@@H]23 [CONCHITRIOL]

Biological target: T1, Nuclear factor erythroid 2-related factor 2 (Homo sapiens)
Experiment: Induction of Nrf2-mediated SOD protein expression in H2O2-stimulated human U373MG cells preincubated at 5 uM for 24 hrs before H2O2 challenge by Western blot method
Type: cell-based
Conditions: U-373MG ATCC

Row | Activity | SMILES
5 | inactive | CC1(C)CCC[C@]2(C)[C@@H]1C[C@H](O)[C@@]13C=C[C@@](CO)(C1)[C@H](O)C[C@@H]23 [CONCHITRIOL]

Tested on: U373 MG
Experiment: Induction of Nrf2 nuclear protein expression in H2O2-stimulated human U373MG cells preincubated at 5 uM for 24 hrs before H2O2 challenge by Western blot method
Type: functional, cell-based
Conditions: U-373MG ATCC

Row | SMILES | Activity
6 | CC1(C)CCC[C@]2(C)[C@@H]1C[C@H](O)[C@@]13C=C[C@@](CO)(C1)[C@H](O)C[C@@H]23 [CONCHITRIOL] | inactive

Tested on: U373 MG
Experiment: Induction of HO-1 activity in human U373MG cells assessed as bilirubin production per mg protein preincubated at 10 uM for 24 hrs before H2O2 challenge by fluorimetric method (reference value: 19.6 +/-3.5 pmol/hr/mg protein)
Type: functional, U-373MG ATCC
Conditions: not given

Row | SMILES | Activity
7 | CC1(C)CCC[C@]2(C)[C@@H]1C[C@H](O)[C@@]13C=C[C@@](CO)(C1)[C@H](O)C[C@@H]23 [CONCHITRIOL] | 17.8 pmol/h

Tested on: U373 MG
Experiment: Induction of HO-1 activity in human U373MG cells assessed as bilirubin production per mg protein preincubated at 5 uM for 24 hrs before H2O2 challenge by fluorimetric method (reference value: 19.6 +/-3.5 pmol/hr/mg protein)
Type: functional, U-373MG ATCC
Conditions: not given

Row | SMILES | Activity
8 | CC1(C)CCC[C@]2(C)[C@@H]1C[C@H](O)[C@@]13C=C[C@@](CO)(C1)[C@H](O)C[C@@H]23 [CONCHITRIOL] | 15.9 pmol/h

Tested on: U373 MG
Experiment: Induction of total GPx activity in human U373MG cells assessed as […] per mg protein preincubated at 10 uM for 24 hrs before H2O2 challenge by fluorimetric method (reference value: 58.5 +/- 5.1 nmol/min/mg protein)
Type: functional, U-373MG ATCC
Conditions: not given

Row | SMILES | Activity
9 | CC1(C)CCC[C@]2(C)[C@@H]1C[C@H](O)[C@@]13C=C[C@@](CO)(C1)[C@H](O)C[C@@H]23 [CONCHITRIOL] | 52.6 nmol/min

Tested on: U373 MG
Experiment: Induction of total GPx activity in human U373MG cells assessed as […] per mg protein preincubated at 5 uM for 24 hrs before H2O2 challenge by fluorimetric method (reference value: 58.5 +/- 5.1 nmol/min/mg protein)
Type: functional, U-373MG ATCC
Conditions: not given

Row | SMILES | Activity
10 | CC1(C)CCC[C@]2(C)[C@@H]1C[C@H](O)[C@@]13C=C[C@@](CO)(C1)[C@H](O)C[C@@H]23 [CONCHITRIOL] | 59.5 nmol/min

Tested on: U373 MG
Experiment: Induction of selenium-dependent GPx activity in human U373MG cells assessed as […] per mg protein preincubated at 10 uM for 24 hrs before H2O2 challenge by fluorimetric method (reference value: 14.7 +/- 2.9 nmol/min/mg protein)
Type: functional, U-373MG ATCC
Conditions: not given

Row | SMILES | Activity
11 | CC1(C)CCC[C@]2(C)[C@@H]1C[C@H](O)[C@@]13C=C[C@@](CO)(C1)[C@H](O)C[C@@H]23 [CONCHITRIOL] | 19.4 nmol/min

Tested on: U373 MG
Experiment: Induction of selenium-dependent GPx activity in human U373MG cells assessed as […] per mg protein preincubated at 5 uM for 24 hrs before H2O2 challenge by fluorimetric method (reference value: 14.7 +/- 2.9 nmol/min/mg protein)
Type: functional, U-373MG ATCC
Conditions: not given

Row | SMILES | Activity
12 | CC1(C)CCC[C@]2(C)[C@@H]1C[C@H](O)[C@@]13C=C[C@@](CO)(C1)[C@H](O)C[C@@H]23 [CONCHITRIOL] | 17.6 nmol/min

Tested on: U373 MG
Experiment: Induction of Glutathione reductase activity in human U373MG cells assessed as […] per mg protein preincubated at 5 uM for 24 hrs before H2O2 challenge by fluorimetric method (reference value: 9.3 +/- 2.2 nmol/min/mg protein)
Type: functional, U-373MG ATCC
Conditions: not given

Row | SMILES | Activity
13 | CC1(C)CCC[C@]2(C)[C@@H]1C[C@H](O)[C@@]13C=C[C@@](CO)(C1)[C@H](O)C[C@@H]23 [CONCHITRIOL] | 8.2 nmol/min
